Results as given in the Deep4Chem optical property database.
Values joined by “and” are separate entries in the source; they are usually repeats but may differ in a detail not shown here. Equal entries are not always repeated.

Experiment: solvent given as SMILES
[1] = in O=P(c1ccccc1)(c1ccccc1)c1ccccc1Oc1ccccc1P(=O)(c1ccccc1)c1ccccc1

CNc1cccc2c1C(=O)c1ccccc1-2
fluorescence lifetime (in C1CCCCC1): 1.6 ns
fluorescence lifetime (in CC#N): 4.2 ns
fluorescence lifetime (in CCO): 2.8 ns
fluorescence lifetime (in c1ccccc1): 2.8 ns

C=C[C@]12CC[C@H](CC1)N=N2
fluorescence lifetime (in CC#N): 0.56 ns

O=C1/C(=C2\Nc3cc4ccc5cccc6ccc(c3C2=O)c4c56)Nc2cc3ccc4cccc5ccc(c21)c3c45
fluorescence lifetime (in C1CCOC1): 0.42 ns

O=C(O)CCCCCn1c2ccc(Br)cc2c(=O)c2cc(S(=O)(=O)O)ccc21
fluorescence lifetime (in O): 7.1 ns

CCCCC(CC)Cn1c2cc(C#N)ccc2c2cc(-c3ccc(N(c4ccccc4)c4ccccc4)cc3)c(C#N)cc21 (stereo not drawn)
fluorescence lifetime (in ClCCl): 7.59 ns

CCCCn1c(-c2ccc(-c3nnc(-c4ccccc4)o3)cc2)nc(-c2ccccc2)c1-c1ccccc1
fluorescence lifetime (in ClCCl): 1.76 ns

N#Cc1ccc(C#Cc2ccccc2C#N)cc1
fluorescence lifetime (in ClC(Cl)Cl): 2.64 ns

CC1=[N+]2C(=C(c3ccc(C(=C(c4ccccc4)c4ccccc4)c4ccccc4)cc3)c3ccc(/C=C/c4ccc(C(=C(c5ccccc5)c5ccccc5)c5ccccc5)cc4)n3[B-]2(F)F)C=C1
fluorescence lifetime (in C1CCOC1): 3.5 ns

C#Cc1ccc2ccc3cccc4ccc1c2c34
fluorescence lifetime (in C1CCCCC1): 14.9 ns
fluorescence lifetime (in CC#N): 13.4 ns
fluorescence lifetime (in CO): 17.8 ns
fluorescence lifetime (in ClCCl): 20.5 ns

NCc1ccc2ccc3cccc4ccc1c2c34
fluorescence lifetime (in CC#N): 232 ns
fluorescence lifetime (in CO): 119 ns
fluorescence lifetime (in ClC(Cl)Cl): 38 ns

CCCCCCCCCCN1C(=O)c2cc(NCCCOCCO)c3c4c(cc(NCCCOCCO)c(c24)C1=O)C(=O)N(CCCCCCCCCC)C3=O
fluorescence lifetime (in CO): 7.8 ns
fluorescence lifetime (in ClC(Cl)Cl): 9.7 ns

Fc1nc(F)c(F)c(C#Cc2cc3c(cc2C#Cc2c(F)c(F)nc(F)c2F)OC2(CCCCC2)O3)c1F
fluorescence lifetime (in CC#N): 5.3 ns

CCN1\C(=C/C=C/C=C/C2=[N+](CC)c3ccc4cc(Br)ccc4c3C2(C)C)C(C)(C)c2c1ccc1cc(Br)ccc21
fluorescence lifetime (in C1CCOC1): 1.37 ns
fluorescence lifetime (in CC#N): 1.01 ns
fluorescence lifetime (in CC(C)=O): 1.12 ns
fluorescence lifetime (in CCO): 1.03 ns
fluorescence lifetime (in CN(C)C=O): 1.39 ns
fluorescence lifetime (in CO): 0.84 ns
fluorescence lifetime (in CS(C)=O): 1.5 ns
fluorescence lifetime (in ClCCl): 1.46 ns

O=c1oc2ccccc2cc1-c1cccc(-c2cc3ccccc3oc2=O)c1
fluorescence lifetime (in ClC(Cl)Cl): 0.4 ns

CN(C)c1ccc(C#Cc2cc3ccc4cc(C#Cc5ccc(N(C)C)cc5)cc5ccc(c2)c3c45)cc1
fluorescence lifetime (in Cc1ccccc1): 60 ns

Cn1c(=O)cc(C(=O)c2ccccc2)c2sc(-c3ccc(C(F)(F)F)cc3)cc21
fluorescence lifetime (in ClCCl): 1.66 ns

FC(F)(F)c1ccc(C2=CC3=c4cc(-c5ccc(C(F)(F)F)cc5)c5nc(C(F)(F)C(F)(F)C(F)(F)F)nc6c(-c7ccc(C(F)(F)F)cc7)cc(c4c65)C4=CC(c5ccc(C(F)(F)F)cc5)=C5N=C(C(F)(F)C(F)(F)C(F)(F)F)N=C2C5C43)cc1 (stereo not drawn)
fluorescence lifetime (in C1CCOC1): 2.8 ns

CN(C)c1ccc(-c2cc(-c3ccc(C#N)cc3)nc(-c3ccccc3)n2)cc1
fluorescence lifetime (in ClC(Cl)Cl): 3.5 ns

CCCCn1c(-c2ccc(-c3nnc(-c4cccs4)o3)cc2)nc2c3ccccc3c3ccccc3c21
fluorescence lifetime (in ClCCl): 1.76 ns

CCCCCCCCCCCCN1C(=O)c2c(c3ccc4cc(-c5ccc(N(C)C)cc5)c(OC)cc4c3c3c2ccc2cc(-c4ccc(N(C)C)cc4)c(OC)cc23)C1=O
fluorescence lifetime (in ClCCl): 5.85 ns

CCN(CC)c1ccc2c(C)cc(=O)oc2c1
fluorescence lifetime (in C1CCCCC1): 2.8 ns
fluorescence lifetime (in CC#N): 3.4 ns
fluorescence lifetime (in CCCCCCCCO): 3.69 ns
fluorescence lifetime (in CCCCCCO): 3.68 ns
fluorescence lifetime (in CCCCO): 3.55 ns
fluorescence lifetime (in CCCO): 3.48 ns
fluorescence lifetime (in CCO): 3.15 ns and 2.04 ns and 3.1 ns
fluorescence lifetime (in CCOC(C)=O): 3.1 ns
fluorescence lifetime (in CO): 1.94 ns
fluorescence lifetime (in O): 0.36 ns
fluorescence lifetime (in OCC(O)CO): 3.8 ns

CCN(CC)c1cccc(C=O)c1
fluorescence lifetime (in CC#N): 11.7 ns
fluorescence lifetime (in CC(C)O): 1.47 ns
fluorescence lifetime (in CCCCCC): 5.95 ns
fluorescence lifetime (in CCOC(C)=O): 14.3 ns
fluorescence lifetime (in CS(C)=O): 21.9 ns
fluorescence lifetime (in Cc1ccccc1): 16.2 ns
fluorescence lifetime (in ClCCl): 26.6 ns

Cc1cc(C)c(C)c(B(c2c(C)c(C)cc(C)c2C)c2c(C)c(C)c(N3c4ccccc4Oc4ccccc43)c(C)c2C)c1C
fluorescence lifetime (in CC(C)(C)c1ccc(-n2c3ccc([Si](c4ccccc4)(c4ccccc4)c4ccccc4)cc3c3cc([Si](c4ccccc4)(c4ccccc4)c4ccccc4)ccc32)cc1): 5.9 ns

COc1ccc(/C=C/C2=[O+][B-](F)(F)OC(/C=C/c3ccc(OC)cc3)=C2c2ccc(OC)cc2)cc1
fluorescence lifetime (in ClCCl): 1.31 ns

N#Cc1c(-n2c3ccccc3c3cc(I)ccc32)c(C#N)c(-n2c3ccccc3c3cc(I)ccc32)c(-n2c3ccccc3c3cc(I)ccc32)c1-n1c2ccccc2c2cc(I)ccc21
fluorescence lifetime (in Cc1ccccc1): 0.4 ns

COc1ccc2c(c1)CCC1=C(C#Cc3ccc(Cl)cc3)O[B-](F)(F)[O+]=C12
fluorescence lifetime (in ClCCl): 2.53 ns

N#Cc1ccc(-c2cc(-c3ccc(N4CCCC4)cc3)nc(-c3ccccc3)n2)cc1
fluorescence lifetime (in ClC(Cl)Cl): 3.3 ns

CCCCCCn1c2ccccc2c2cc3c4cc5c6ccccc6n(CCCCCC)c5cc4c4cc5c(C)cc(=O)oc5cc4c3cc21
fluorescence lifetime (in ClC(Cl)Cl): 3.1 ns

CC1=C(c2ccc(N(c3ccccc3)c3ccccc3)cc2)C(C)=[N+]2C1=C(c1c(-c3ccccn3)nc3ccccn13)c1c(C)c(-c3ccc(N(c4ccccc4)c4ccccc4)cc3)c(C)n1[B-]2(F)F
fluorescence lifetime (in ClCCl): 0.3 ns

CCCCc1ccc2ccc3c(CCCC)ccc4ccc1c2c43
fluorescence lifetime (in CCCCCC): 57.8 ns
fluorescence lifetime (in CO): 70.6 ns
fluorescence lifetime (in ClCCl): 42 ns

CCNc1cc2oc(=O)cc(C(F)(F)F)c2cc1C
fluorescence lifetime (in CC#N): 7.7 ns

C[n+]1ccn(CCCCc2ccc3c(c2)c2ccccc2n3-c2cc(C#N)c(C#N)cc2F)c1
fluorescence lifetime (in CC#N): 3.26 ns

CC/C=C/C=C/C=C/C=C/CCCCCCCC(=O)O
fluorescence lifetime (in CCCCCCCCCC): 3.1 ns
fluorescence lifetime (in CCCCO): 1.5 ns

O=C(c1ccc(-n2c3ccccc3c3cc(-n4c5ccccc5c5ccccc54)ccc32)cc1)c1ccc(-n2c3ccccc3c3cc(-n4c5ccccc5c5ccccc54)ccc32)cn1
fluorescence lifetime [1]: 62 ns

COCCN1C(=O)/C(=C/c2cccc(N(C)C)c2)N=C1C
fluorescence lifetime (in C1CCOC1): 14.7 ns
fluorescence lifetime (in CC#N): 7.9 ns
fluorescence lifetime (in CCCCCC): 21.2 ns

Cc1c(C2=[N+]3C(=Cc4c(C)c5ccccc5n4[B-]3(F)F)c3ccccc32)[nH]c2ccccc12
fluorescence lifetime (in ClCCl): 1.22 ns

C[NH+](C)c1c2ccccc2cc2ccccc12
fluorescence lifetime (in O): 17.3 ns

CCCN1C(=O)c2c3c(c4c(c2C1=O)CCc1cc(-c2ccc(N(C)C)cc2)c(OC)cc1-4)-c1cc(OC)c(-c2ccc(N(C)C)cc2)cc1CC3
fluorescence lifetime (in C1CCCCC1): 5.13 ns
fluorescence lifetime (in C1CCOC1): 0.93 ns
fluorescence lifetime (in CCOC(C)=O): 0.85 ns
fluorescence lifetime (in Cc1ccccc1): 5.64 ns
fluorescence lifetime (in ClCCl): 0.38 ns

Cn1c2ccccc2c2cc(/C=C/C3=[O+][B-](F)(F)OC(/C=C/c4ccc5c(c4)c4ccccc4n5C)=C3c3ccccc3)ccc21
fluorescence lifetime (in ClCCl): 2.15 ns

C(=C\c1nc(-c2ccccc2)c2ccccn12)/c1nc(-c2ccccc2)c2ccccn12
fluorescence lifetime (in CC#N): 1 ns

Cc1ccc(C2=C3C=C(I)C=[N+]3[B-](F)(F)n3cc(I)cc32)cc1
fluorescence lifetime (in C1CCCCC1): 0.117 ns
fluorescence lifetime (in CC#N): 0.057 ns
fluorescence lifetime (in CCO): 0.065 ns
fluorescence lifetime (in CCOC(C)=O): 0.069 ns
fluorescence lifetime (in CO): 0.057 ns
fluorescence lifetime (in OCC(F)(F)F): 0.072 ns

CCOC(=O)CCCCCn1c2ccccc2c(=O)c2cc(N)ccc21
fluorescence lifetime (in O): 10.9 ns

c1ccc(Nc2nc(Nc3ccccc3)nc(Nc3ccc4ccc5cccc6ccc3c4c56)n2)cc1
fluorescence lifetime (in CCCCCCC): 4.3 ns

C#CCNC1=C2C(C)=CC(C)=[N+]2[B-](F)(F)n2c(C)cc(C)c21
fluorescence lifetime (in C1CCCCC1): 1.78 ns
fluorescence lifetime (in CC(C)=O): 0.61 ns
fluorescence lifetime (in CCOC(C)=O): 0.78 ns
fluorescence lifetime (in CO): 0.518 ns
fluorescence lifetime (in OCC(F)(F)F): 0.76 ns

CC1(C)c2ccccc2N(c2ccccc2)c2ccc(S(=O)(=O)c3ccc4c(c3)C(C)(C)c3ccccc3N4c3ccccc3)cc21
fluorescence lifetime [1]: 2.06 ns

Cn1cccc1-c1ccc(C#N)cc1
fluorescence lifetime (in CC#N): 5.4 ns
fluorescence lifetime (in CCCCCC): 1.8 ns
fluorescence lifetime (in CCOCC): 5.21 ns
